Test results: patent publication US20020045780A1, “Biologically active spermidine analogues, pharmaceutical compositions and methods of treatment” (priority 1997, published 2002)
Entries after “also recorded” stand apart in the source; their conditions may differ. Counter-ions that a name gives are not always drawn. Like-named read-outs stand apart in the source and are kept apart here.

Assays:
L1210 cells [1] = experiment: L1210 growth inhibition, IC50 determination; format: cell-based, murine; conditions: Mus musculus
Method: Murine L1210 leukemia cells (ATCC CCL 219) were maintained in logarithmic growth in RPMI-1640 medium containing 10% fetal calf serum or a semi-synthetic equivalent, NuSerum, 2% HEPES-MOPS buffer and 1 mM aminoguanidine.

[2] = tested on: polyamine transport apparatus; experiment: Competitive uptake determination: inhibition of [3H]spermidine transport into L1210 cells; format: cell-based, murine; conditions: analogue inhibition of spermidine transport
Method: The ability of the norspermidines, spermidines, homospermidines, 4,5- and 5,5-triamines to compete with radiolabeled SPD for uptake was evaluated (Table 1). The general trend is that the terminally alkylated triamines have higher Ki values than the unalkylated triamines and are thus less easily taken up by the cell. […] This is not completely true with the norspermidines and the 5,5 triamines. The relationship holds with methyl and ethyl but not for the propyl of the latter two systems. Finally, the number of methylenes separating the amines plays a role in determining polyamine uptake properties. In general the effectiveness with which the analogues compete for uptake is spermidines≈homospermidines>4,5 triamines>5,5 triamines>norspermidine.
The polyamine derivatives were studied for their ability to compete with [^3H]-SPD for uptake into L1210 cells [Bergeron et al, J. Med. Chem., Vol. 37, supra]. Lineweaver-Burk plots indicated a simple competitive inhibition with respect to SPD.

L1210 cells [3] = experiment: Polyamine pool analysis in L1210 cells; format: cell-based, murine; conditions: for activity at 100 µM / activity at 500 µM: Mus musculus, L1210, 48 h, % of untreated control; for Analogue: intracellular amount
Method: The following guidelines were adopted for studying the impact of the analogues on polyamine pools (Table 2). The measurements were made after a 48-hour exposure to the analogue, and two different concentrations of analogue were evaluated in each case.
(§1) The cells were washed twice with cold RPMI-1640, and the pellet was treated with 0.6 N HClO4 (1 ml/10^7 cells). Polyamine contents of the perchloric acid extracts were quantitated by HPLC of the DANSYL derivatives [Bergeron et al, J. Med. Chem., Vol. 37, supra].

[4] = tested on: ornithine decarboxylase (ODC); experiment: ODC activity in treated L1210 cells; format: cell-based, murine; conditions: L1210, 1 μM at 4 hours
Method: (§2) On the basis of these studies, it was elected to evaluate the impact of the triamines on ODC and AdoMetDC at 4 and 6 hours, respectively.
(§3) ODC and AdoMetDC activities were determined as ^14CO2 released from [^14C]-carboxyl-labeled L-ornithine [Seely et al, “Ornithine Decarboxylase (Mouse Kidney),” Methods Enzymol., Vol. 94, pages 158-161 (1983)] or S-adenosyl-L-methionine [Pegg et al, “S-Adenosylmethionine Decarboxylase (Rat Liver),” Methods Enzymol., Vol. 94, pages 234-239 (1983)], respectively. Included in each assay were untreated L1210 cells as controls, as well as cells treated with DEHSPM, a drug having a known reproducible effect on each enzyme, as positive controls.

[5] = tested on: S-adenosylmethionine decarboxylase (AdoMetDC); experiment: AdoMetDC activity in treated L1210 cells; format: cell-based, murine; conditions: L1210, 1 μM at 6 hours
Method: as §2, §3

[6] = tested on: spermidine/spermine acetyltransferase (SSAT); experiment: SSAT activity in treated L1210 cells; format: cell-based, murine; conditions: L1210, 10 μM at 48 hours (triamine analogues)
From the text: Spermidine/spermine N^1-acetyltransferase activity was based on quantitation of [^14C]-N^1-acetylspermidine formed by acetylation of SPD with [^14C] acetyl coenzyme A according to the method of Libby et al [Biochem. Pharmacol., Vol. 38, supra]. Cells treated with DENSPM were positive controls.

L1210 cells [7] = experiment: Metabolic transformation of polyamine analogues by L1210 cells; format: in vitro ADME, murine; conditions: 48 hours
Method: as §1

[8] = L1210, 48 h, L1210, 48 hour exposure, read-out: IC50 48 hour
[9] = L1210, 96 h, L1210, 96 hour exposure, read-out: IC50 96 hour

Structure (SMILES)	IC50 (L1210 cells [1]; [8]) [µM]	IC50 (L1210 cells [1]; [9]) [µM]	Analogue (L1210 cells [3]; 100 μM, 48 hours) [nmol/10^6 cells]	Analogue (L1210 cells [3]; 500 μM, 48 hours) [nmol/10^6 cells]	Parent drug as % of total drug in the cell (L1210 cells [7]; 100 μM analogue) [%]	Parent drug in L1210 cells (L1210 cells [7]; 100 μM analogue) [pmols/10^6]	Ki [2] [µM]	activity at 100 µM (L1210 cells [3]; 100 μM, read-out: Put) [%]	activity at 100 µM (L1210 cells [3]; 100 μM, read-out: Spd) [%]	activity at 100 µM (L1210 cells [3]; 100 μM, read-out: Spm) [%]	activity at 500 µM (L1210 cells [3]; 500 μM, read-out: Put) [%]	activity at 500 µM (L1210 cells [3]; 500 μM, read-out: Spd) [%]	activity at 500 µM (L1210 cells [3]; 500 μM, read-out: Spm) [%]	ODC activity, percent of untreated control [4]	AdoMetDC activity, percent of untreated control [5]	SSAT activity, percent of untreated control [6]	also measured
CCCNCCCCCNCCCCCNCCC [DP(5,5), 4,10,16-Triazanonadecane Trihydrochloride]	> 100	6	0.86	1.33	–	–	87	59	73	97	51	69	103	73% of untreated control	123% of untreated control	90% of untreated control	PUT reduced by (L1210 cells [3]; 500 μM, 48 hours): 50%; SPD reduced by (L1210 cells [3]; 500 μM, 48 hours): 30%; Parent drug as % of total drug in the cell (L1210 cells [7]; 500 μM analogue): 100%; Parent drug in L1210 cells (L1210 cells [7]; 500 μM analogue): 1300 pmols/10^6; N-Monodealkylation (result in words) (L1210 cells [7]; 500 μM analogue, Trihydrochloride): no metabolic products were found; N-Monodealkylation (result in words) (L1210 cells [7]; 500 μM analogue, listed as DP-[6,5], Trihydrochloride): no N-depropylation
CCCNCCCCNCCCCNCCC [DPHSPD, N^1,N^9-Dipropylhomospermidine Trihydrochloride]	> 100	6	3.12	3.68	–	–	67	0	19	144	0	7	111	86% of untreated control	123% of untreated control	420% of untreated control	Elaboration to tetraamine (result in words) (L1210 cells [7]; 500 μM analogue): elaboration of N-Monoalkyl [4,4]; Parent drug as % of total drug in the cell (L1210 cells [7]; 500 μM analogue): 87.7%; Parent drug in L1210 cells (L1210 cells [7]; 500 μM analogue): 3149 pmols/10^6
CCNCCCCNCCCN [MESPD(N8), N^8-Ethylspermidine Trihydrochloride]	> 100	40	4.41	4.96	99.4	4825	7	0	26	84	0	15	61	17% of untreated control	54% of untreated control	400% of untreated control	Elaboration to tetraamine (result in words) (L1210 cells [7]; 100 μM analogue, listed as N8-ME-[4,3], Trihydrochloride): no evidence of a tetraamine elaboration metabolite; also recorded: no elaboration of N8-Alkyl [4,3]
CCCNCCCNCCCCN [MPSPD(N1), N^1-Propylspermidine Trihydrochloride]	> 100	20 to 35	3.97	4.95	93.9	4238	3	0	25	90	0	15	72	18% of untreated control	56% of untreated control	1200% of untreated control	–

Second part, led by results:

IC50 (L1210 cells [1]; [8]) [µM]	IC50 (L1210 cells [1]; [9]) [µM]	Analogue (L1210 cells [3]; 100 μM, 48 hours) [nmol/10^6 cells]	Analogue (L1210 cells [3]; 500 μM, 48 hours) [nmol/10^6 cells]	Parent drug as % of total drug in the cell (L1210 cells [7]; 100 μM analogue) [%]	Parent drug in L1210 cells (L1210 cells [7]; 100 μM analogue) [pmols/10^6]	Structure (SMILES)	Ki [2] [µM]	activity at 100 µM (L1210 cells [3]; 100 μM, read-out: Put) [%]	activity at 100 µM (L1210 cells [3]; 100 μM, read-out: Spd) [%]	activity at 100 µM (L1210 cells [3]; 100 μM, read-out: Spm) [%]	activity at 500 µM (L1210 cells [3]; 500 μM, read-out: Put) [%]	activity at 500 µM (L1210 cells [3]; 500 μM, read-out: Spd) [%]	activity at 500 µM (L1210 cells [3]; 500 μM, read-out: Spm) [%]	ODC activity, percent of untreated control [4]	AdoMetDC activity, percent of untreated control [5]	SSAT activity, percent of untreated control [6]	also measured
> 100	60	0.49	1.24	57.7	404	CCCNCCCNCCCNCCC [DPNSPD, N^1,N^7-Dipropylnorspermidine Trihydrochloride]	125	70	76	96	68	71	102	100% of untreated control	99% of untreated control	220% of untreated control	–
> 100	3 to 5	4.20	4.73	96.3	3946	CCNCCCNCCCCN [MESPD(N1), N^1-Ethylspermidine Trihydrochloride]	8.6	0	25	80	0	14	53	10 (10) percent of untreated control	58% of untreated control	430% of untreated control	–
> 100	~100	3.07	4.78	94.3	3019	CCCNCCCNCCCN [MPNSPD, N^1-Propylnorspermidine Trihydrochloride]	33	0	29	56	0	–	< 50	33% of untreated control	38% of untreated control	470% of untreated control	Elaboration to tetraamine (result in words) (L1210 cells [7]; 100 μM analogue, listed as MP-[3,3], Trihydrochloride): no evidence of a tetraamine elaboration metabolite; also recorded: no elaboration of N-Monoalkyl [3,3]
> 100	50 to 60	3.52	5.16	99.3	3549	CCCNCCCCNCCCN [MPSPD(N8), N^8-Propylspermidine Trihydrochloride]	8.5	0	33	103	0	16	95	14% of untreated control	64% of untreated control	500% of untreated control	Elaboration to tetraamine (result in words) (L1210 cells [7]; 100 μM analogue, listed as N8-MP-[4,3], Trihydrochloride): no evidence of a tetraamine elaboration metabolite; also recorded: no elaboration of N8-Alkyl [4,3]
